Experimental data: PubChem BioAssay (NCI)
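Where inhibition never reached the appropriate level, the endpoint shown equals the highest concentration tested. Otherwise, values were interpolated linearly from a five-concentration, 48-hour dose response in 96-well plates. GI50 = concentration required for 50% inhibition of growth. Definition used: TGI = concentration required for complete inhibition of growth.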

How the values were obtained:
Test in all cases: NCI anticancer screen, dose series, 48 h
[1] = system: HCT-116 colon
[2] = system: T-47D breast
[3] = system: UO-31 renal
[4] = system: MALME-3M melanoma
[5] = system: OVCAR-5 ovarian
[6] = system: M14 melanoma
[7] = system: OVCAR-8 ovarian

Row | Structure (SMILES) | GI50 [1] [µM] | TGI [1] [µM] | GI50 [2] [µM] | TGI [2] [µM] | GI50 [3] [µM] | TGI [3] [µM] | GI50 [4] [µM] | TGI [4] [µM] | GI50 [5] [µM] | TGI [5] [µM] | GI50 [6] [µM] | TGI [6] [µM] | GI50 [7] [µM] | TGI [7] [µM]
1 | CCCCOC(=O)c1ccc(NC(=O)CCl)cc1 | 1.29 | 2.86 | 1.38 | 4.01 | 1.39 | 2.84 | 1.76 | 3.68 | 2.16 | 4.45 | 3.07 | 12.7 | 2.29 | 4.73
2 | CCOc1ccc2nc(-c3cccc(OCC(=O)NC(C)C)c3)nc(Nc3ccc(-c4cn[nH]c4)cc3)c2c1 | 0.783 | 3.18 | 0.292 | 3.57 | 0.344 | 3.51 | 0.324 | 1.79 | 3.3 | 21.9 | 1.22 | 10.5 | 0.586 | 4.76
3 | O=CC(Br)C(Br)c1ccccc1 (stereo unspecified) | 0.225 | 0.523 | 0.942 | 3.17 | 1.48 | 3.07 |  |  | 4.5 | 13.2 | 2 | 4.88 | 2.95 | 10.2
4 | CSc1n(Cc2ccc3ccccc3c2)c(C)c[n+]1Cc1ccc2ccccc2c1 | 0.615 | 1.86 | 0.408 | 2.1 | 1.6 | 3.84 | 0.472 | 1.73 | 1.2 | 2.53 | 0.608 | 2.08 | 0.417 | 1.6
5 | COc1ccc2c3c(c4ccccc4cc13)C(=O)N(CCN(C)CCN)C2=O | 0.0312 | 1.17 | 0.0877 | 12.6 | 0.065 | 1.35 | 0.0799 | 1.27 | 0.293 | 1.54 | 0.0599 | 1.32 | 0.107 | 1.61
6 | O=C(O)C1C(=O)Oc2c(cccc2[N+](=O)[O-])C1O (stereo unspecified) |  | > 100 |  | > 100 |  |  |  | > 100 |  | > 100 |  | > 100 |  | > 100
7 | Nc1nc2ccc3[nH]ncc3c2c2c1CCCC2 | 1 | 5.86 | 2.55 | 11.7 | 2.13 | 10.5 | 2.36 | 5.13 | 1.94 | 8.91 | 1.53 | 3.23 | 2.14 | 18.8
8 | COc1ccc2nc3cc([N+](=O)[O-])ccc3c(NCCCN(CCO)CCO)c2c1 | 2.36 | 9.54 | 1.62 | 7.5 | 8.56 | 22.6 | 2.21 | 5.3 | 12.5 | 25.2 | 2.36 | 5.18 | 3.31 | 11.2
9 | Cc1cc([N+](=O)[O-])ccc1NS(=O)(=O)c1cc(Cl)ccc1Cl | 2.85 | 11.9 | 1.92 | 8.01 | 2.97 | 17 | 2.33 | 6.83 | 5.1 | > 100 | 3.66 | 33.4 | 3.65 | > 100
10 | Fc1cccc(CSc2ncnc3c2ncn3C2CCCS2)c1 (stereo unspecified) |  | 26.3 |  | > 100 |  | 36.2 |  | 49.3 |  | > 100 |  | 33.7 |  | 75.7
11 | O=C(O)c1ccc2c3c(ncnc13)-c1ccccc1C2=O | 27.2 | > 100 | > 100 | > 100 | 15.8 | > 100 | 0.517 | 1.58 | 37.9 | > 100 | 1.35 | 3.05 | 47.5 | > 100
12 | Cc1cccc(Cl)c1NC(=O)c1cnc(Nc2cc(N3CCOCC3)cc(N3CCOCC3)c2)s1 | 0.0328 | > 10 | 0.0368 | > 10 | 0.0067 | 0.789 | > 4.82 | > 10 | 0.0275 | > 10 | 4.18 | > 10 | 0.0842 | > 10
13 | Cn1c(/C=C(\C#N)c2cccc(C(F)(F)F)c2)nc2c(N3CCOCC3)nc(Cl)nc21 | 0.178 | 0.398 | 0.846 | 3.25 | 0.422 | 1.84 | 1.39 | 2.79 | 1.32 | 2.87 | 0.733 | 2.08 | 0.567 | 2.16
14 | CC(=O)C1COC(O)C1C (stereo unspecified) |  | 39.6 |  | > 100 |  | 34.9 |  |  |  | 59.2 |  | 61.1 |  | 46
15 | COc1cc(F)cc([C@@H](CO)NC(=O)[C@@H](C)N2Cc3ccc(-c4nc(NC5CCOCC5)ncc4Cl)cc3C2=O)c1 | 0.0173 | > 54.9 | 5.03 | 33 | 0.406 | 33.6 | < 0.01 | < 0.01 | < 0.0127 | > 100 | < 0.01 | 0.962 | 13.6 | 64.8
16 | COc1c2c(c(CC=C(C)C)c3oc(=O)c(-c4ccc(O)cc4)c(O)c13)OC(C)(C)C=C2 |  | 37.5 |  | > 100 |  | > 100 |  | 70.2 |  | > 100 |  | 73.3 |  | > 100
17 | CN[C@@H]1C[C@H]2O[C@@](C)([C@@H]1OC)n1c3ccccc3c3c4c(c5c6ccccc6n2c5c31)C(=O)N[C@H]4O | 0.166 | 1.89 | 0.00739 | 0.163 | 0.0116 | 0.0547 | 0.0217 | 0.486 |  |  |  | > 3.69 | 0.0885 | > 5.44
18 | O=C(Nc1ccc2[nH]c(C(=O)N3CC(CCl)c4c3cc([N+](=O)[O-])c3ccccc43)cc2c1)c1cc2ccccc2o1 (stereo unspecified) | > 1100 | > 1100 | > 1100 | > 1100 | > 1100 | > 1100 | > 1100 | > 1100 | > 1100 | > 1100 | > 1100 | > 1100 | > 1100 | > 1100
19 | O=C(/C=C/c1cccc([N+](=O)[O-])c1)c1ccc(O)c(CN2CCN(c3cc4c(cc3F)c(=O)c(C(=O)O)cn4C3CC3)CC2)c1 | 0.494 | 1.81 | 1.85 | 4.99 | 1.29 | 2.67 | 1.93 | 4.25 | 1.75 | 3.35 |  |  | 2.52 | 8.77

Row | Structure (SMILES) | GI50 [1] [µM] | TGI [1] [µM] | GI50 [2] [µM] | TGI [2] [µM] | GI50 [3] [µM] | TGI [3] [µM] | GI50 [4] [µM] | TGI [4] [µM] | GI50 [5] [µM] | TGI [5] [µM] | GI50 [6] [µM] | TGI [6] [µM] | GI50 [7] [µM] | TGI [7] [µM]
20 | Cc1cc(Oc2cnc(=O)[nH]c2)cs1 |  | > 100 |  | > 100 |  | > 100 |  | > 100 |  | > 100 |  | > 100 |  | > 100
21 | COc1ccc2c(c1)c1nc3cc(C)c(C)cc3nc1n2CCN(C)C | 0.354 | 1.64 | 1.2 | 4.25 | 0.541 | 2.1 | 1.11 | 2.53 | 0.953 | 2.3 | 1.1 | 2.57 |  | 
22 | COc1cc2c(cc1OC)-c1ccc3cc4c(cc3c1N(CCN(C)C)C2)OCO4 | 0.411 | 1.83 | 0.21 | 3.48 | 1.77 | 5.77 | 1.15 | 9.45 | 1.53 | 5.23 | 0.43 | 4.85 | 0.51 | 3.44
23 | CCCOC(=O)N[C@H]1CCc2cc(OC)c(OC)c(OC)c2-c2ccc(SC)c(=O)cc21 | < 0.01 | 14.8 |  |  |  | 42 | 0.0476 | > 47.4 | < 0.01 | > 100 | < 0.01 |  | < 0.01 | > 100
24 | CN1C(=O)C(=Cc2cn(Cc3ccccc3)c3ccccc23)C(=O)N(C)C1=O | 11.1 | > 100 | 3.91 | > 75.3 | > 38.8 | > 81.4 | 42.1 | > 100 | 0.234 | 0.82 | 48.7 | > 100 | 35.8 | > 82.6
25 | O=C1NC(=O)C(c2ccc(Cl)cc2)=C1Nc1ccc(Cl)c(C(=O)O)c1 | > 25 | > 25 | > 25 | > 25 | > 25 | > 25 | > 25 | > 25 | > 25 | > 25 | > 25 | > 25 | > 25 | > 25
26 | COc1cc(-c2csc(NC(=O)Nc3cc(C(F)(F)F)cc(C(F)(F)F)c3)n2)cc(OC)c1OC | 2.55 | 10.2 | 1.93 | 9.65 | 2.85 | 12.1 | 2.15 | 7.32 | 3.29 | 14 | 2.35 | 6.24 | 2.73 | 13
27 | CC1(C)CCC[C@]2(C)c3cc(O)ccc3CC[C@@H]12 | 42.2 | > 100 |  |  | 19.9 | 40.2 |  |  | 14 | 27.9 | 28.2 | > 100 | 21.7 | 41.1
28 | C[n+]1c2ccccc2c(Nc2ccc(NS(=O)(=O)CCCCN=C(N)N)cc2)c2ccc(N)cc21 | 1.49 | > 100 | 0.222 | 13.5 | 6.5 | > 100 | 4.06 | 35.2 | 41.8 | > 100 | 4.14 | > 100 | 2.48 | > 100
29 | Clc1ccc(C(c2ccc(Cl)cc2)N2CCNCC2)cc1 |  | 3.84 |  | 5.25 |  | 4.4 |  | 3.12 |  | 18.3 |  | 3.39 |  | 3.28
30 | COc1ccc2nc(NCN3C(=O)c4ccccc4C3=O)sc2c1 |  | > 100 |  | > 100 |  | > 100 |  | > 100 |  | > 100 |  | > 100 |  | > 100
31 | c1cncc(-c2nc3ccccc3s2)c1 | > 100 | > 100 | > 100 | > 100 | 29.5 | > 100 | > 100 | > 100 | > 100 | > 100 | > 100 | > 100 | > 100 | > 100
32 | N#Cc1ccc(C2C3=C(CCCC3=O)OC3=C2C(=O)c2ccccc2C3=O)cc1 (stereo unspecified) | 0.48 | 2.11 | 0.453 | 2.24 | 1.67 | 3.14 | 1.55 | 3.05 | 2.09 | 4.23 | 1.71 | 3.37 | 0.722 | 4.79
33 | COc1ccc(-c2cn(-c3cccc(C(=O)/C=C/c4ccc(O)c(OC)c4)c3)c(=O)[nH]2)cc1 | 1.89 | 4.87 | 3.27 | 40.8 | 3.64 | 40.3 | 3.98 | 24.4 | 8.25 | 35.4 | 4.48 | 40.5 | 3.58 | > 49.6
34 | O=C1C(Cl)=C(Nc2cccc(O)c2)C(=O)N1Cc1ccc(Cl)cc1 | 3.66 | 25 | 10.7 | 54 | 10.3 | > 100 | 0.464 | 8.11 | 15.6 | 31.6 | 4.43 | 23.2 | 3.65 | 44.4
35 | CCn1c2ccc(C(=O)CCCN(C)C)cc2c2cc(C(=O)CCCN(C)C)ccc21 |  | 11.6 |  | 33.5 |  | 12.8 |  | 11 |  | 9.34 |  | 5.1 |  | 7.59
36 | CCN(CC)CCCC(C)Nc1c2ccc(Cl)cc2nc2cc(OC)c(OC)cc12 (stereo unspecified) | 0.861 | 4.28 | 7.36 | 32.5 | 1.43 | 2.89 | 1.86 | 3.52 | 2.18 | 8.53 | 1.88 | 3.56 | 2.28 | 10.3
37 | COc1ccc(C2=Nc3c/c(=C\c4c(O)[nH]c5ccc(Cl)cc45)ccc3=N2)cc1 | 1.55 | 3.1 | 2.22 | 5.63 | 1.46 | 3.46 |  |  | 1.86 | 4 | 1.29 | 3.67 | 2.05 | 4.7
